Reference: article PMC2748256 (ACS chemical biology, 2009)

Target: DM2 (RNA7)-MBNL-1 complex
Format: biochemical
Details: ligand added to well containing immobilized RNA7, then MBNL-1

C#CCCCC(=O)NC[C@@H]1O[C@@H](O[C@H]2[C@H](O)[C@@H](O[C@@H]3O[C@@H](CO)[C@H](O)[C@@H](N)[C@@H]3O)[C@H](N)C[C@@H]2N)[C@@H](O)[C@H](O)[C@H]1O [Compound 1, 6′-N-5-hexynoate kanamycin A] was tested, and the IC50 was 220 µM.
